Consider 15 compounds from patent US6255337A, “Anti-first-pass effect compounds and citrus extract” (Bioavailability Systems, L.L.C., priority 1999, dated 2001).

For one series, the system named is first-pass effect. The note with it: orally administered drugs; in words; cited from earlier work.
A further series concerns human cytochrome P450. Put plainly: Protocol C: Assessment of human cytochrome P450-mediated biotransformation (terfenadine, human hepatic S9). The series is classed as in vitro ADME. Here is the method:
The process of preparing incubation mixtures begins by mixing 10 uL of ethanol or an ethanolic solution containing an inhibitor with 100 uL of 100 mg/mL bovine serum albumin (Sigma) dissolved in reaction buffer at room temperature. Reaction buffer is composed of 0.10 M sodium phosphate, 1.0 mM ethylenediaminetetraacetic acid, and 5.0 mM magnesium chloride, pH 7.4 (all reagents: Fisher Scientific). Inhibitory chemicals used were ketoconazole (Research Diagnostics, Inc.), miconazole, bergapten, xanthotoxin (previous three from Sigma), bergamotin, imperatorin, isopimpinellin, psoralen, angelicin (previous five from Indofine Chemical Company, Inc.), and fractions or precipitates resulting from Protocols A and B above. When possible, final inhibitor concentrations were expressed in molarity by calculation from the weighed material or by interpolation from HPLC calibration curves prepared with reference materials; otherwise, concentrations are expressed as weight per volume. Reaction tubes are placed on ice in preparation for the manipulations that follow. Sufficient reaction buffer is added so that the final volume of each tube will be 500 uL, 5 uL of a 100-fold concentrate for generating reduced nicotinamide adenine dinucleotide phosphate is added (such that completed reaction mixture contains 1.0 mM nicotinamide adenine dinucleotide phosphate, 1 U/mL glucose-6-phosphate dehvdrogenase, and 10 mM glucose-6-phosphate; all from Sigma), and then human hiepatic S9 (Anatomic Gift Foundation) is thawed and added in sufficient amounts to cause readily detectable amounts of metabolites to be formed in control reactions (amount necessary varies among individuals, but 10 uL is typical).
The samples prepared above are readied for HPLC assessment using the protocol that follows. Each tube is vortex mixed and centrifuged for 10 min at setting 35, the resulting supernatant is transferred to a clean tube, and the liquid is evaporated using a Speed Vac apparatus. The residue in each tube is first dissolved in 40 uL 1:1 acetonitrile:water, 2.5 mL of acetonitrile is added, and the centrifuge-transfer-evaporate step just described is repeated.
The dry residue resulting from the above-described experiments and sample preparation protocol may be analyzed for terfienadine metabolites using the HPLC method described below and may also be used to quantitate the inhibitory chemicals that were added to the reaction (see Protocol B). Linear gradients are used for elution and are formed by mixing mobile phase A composed of water with mobile phase B composed of 0.025% (v/v) formic acid in acetonitrile (instrument: Hewlett Packard). The elution time, in minutes, the percentage of mobile phase B present in the mixed mobile phase, and the flow rate (mL/min) are as follows: 0, 10, 0.10; 2, 10, 0.10; 3.5, 10, 0.20; 4, 10, 0.25; 5, 10, 0.25; 30, 55, 0.25; 32, 98, 0.25; 33, 98, 0.40; 39.8, 98, 0.40; 40, 98, 0.25; 45, 10, 0.25; 45.25, 10, 0.20; 50, 10, 0.20; 50.25, 10, 0.10. The chromatographic column has dimensions of 150 mm length×2.1 mm internal diameter. is packed with a proprietary material (Prism, Keystone Scientific, Inc.), is protected with a 2 mm internal diameter column containing the same material and with a PTFE filter, and is maintained at 35+/-0.2 C. The dry sample residue is mixed with 60 uL of 1:1 acetonitrile:water followed by 40 uL water just prior to each 50.25 min run cycle. The column eluate from each 10 uL injection is monitored for fluorescence with excitation at 228 nm, emission at 291 nm, and bandpass filtration at 280 nm.

The conditions of series [1]: in words; cited from earlier work.
Series [2] has as its system first-pass effect of cyclosporin. The note with it: heart transplant patients, cyclosporin co-administered with ketoconazole; cited from earlier work.
For series [3] the following is noted: with inhibitors commonly given to humans; in words; cited from earlier work.
In a further series the test system is cytochrome P450. The note with it: given to humans in large doses; in words; cited from earlier work.

“Also recorded” adds a separate entry of the source. Read-outs that look alike come from different tables or passages of the source.

Regarding `Clc1ccc(COC(Cn2ccnc2)c2ccc(Cl)cc2Cl)c(Cl)c1` (stereo not shown) [miconazole], the “inhibition of the first-pass effect” value with first-pass effect is “identified as inhibitors of the first-pass effect”.

Regarding `COc1c2ccoc2c(OC)c2oc(=O)ccc12` [isopimpinellin], the “first-pass effect inhibition (determined herein)” value (“first-pass effect inhibition” for short) in the series with human cytochrome P450 (in words) was “ineffective”.

In the case of `COc1c2ccoc2cc2oc(=O)ccc12` [bergapten, 5-methoxypsoralen], in series [1], the toxicity / phototoxicity result is given as “toxic, in particular, phototoxic”. On to `OC(Cn1cncn1)(Cn1cncn1)c1ccc(F)cc1F` [fluconazole], for which, in the series on first-pass effect, the “inhibition of the first-pass effect” value was “identified as inhibitors of the first-pass effect”. In the case of `CC(C)c1nc(CN(C)C(=O)N[C@H](C(=O)N[C@@H](Cc2ccccc2)C[C@H](O)[C@H](Cc2ccccc2)NC(=O)OCc2cncs2)C(C)C)cs1` [ritonavir], the “inhibition of the first-pass effect” value in the series with first-pass effect was “identified as inhibitors of the first-pass effect”. As to `COc1c2occc2cc2ccc(=O)oc12` [xanthotoxin, 8-methoxypsoralen], the toxicity / phototoxicity entry in series [1] is reported as “toxic, in particular, phototoxic”. As to `CC(C)=CCC/C(C)=C/COc1c2ccoc2cc2oc(=O)ccc12` [bergamottin], the “first-pass effect inhibition” value with human cytochrome P450 is given as “ineffective”.

`CC(=O)N1CCN(c2ccc(OCC3COC(Cn4ccnc4)(c4ccc(Cl)cc4Cl)O3)cc2)CC1` (stereo not shown) [ketoconazole]: the “inhibition of the first-pass effect” value with first-pass effect is “inhibition of the first-pass effect of cyclosporin; also recorded: identified as inhibitors of the first-pass effect”. For the same compound, the “reduction of the dose of cyclosporin required” value in series [2] was “approximately 85%”. With `CC(C)=CCOc1c2occc2cc2ccc(=O)oc12` [imperatorin], in the series on human cytochrome P450 (2000 nM, in words), the “first-pass activity according to Protocol C” value was “non-first-pass inhibiting”. The “first-pass effect inhibition” value with human cytochrome P450 (in words) is recorded as “ineffective”. Regarding `CO[C@H]1C[C@H](O[C@H]2[C@H](C)[C@@H](O[C@@H]3O[C@H](C)C[C@H](N(C)C)[C@H]3OC(C)=O)[C@@H](C)C[C@@]3(CO3)C(=O)[C@H](C)[C@@H](OC(C)=O)[C@@H](C)[C@@H](C)OC(=O)[C@@H]2C)O[C@@H](C)[C@@H]1OC(C)=O` [troleandomycin], in the series on first-pass effect, the “inhibition of the first-pass effect” value is reported as “identified as inhibitors of the first-pass effect”. `Cc1nnc2n1-c1ccc(Cl)cc1C(c1ccccc1Cl)=NC2` [triazolam]: the “increase of bioavailability by inhibitors” value in series [3] is recorded as “bioavailability is increased by inhibitors”. Regarding `O=c1ccc2cc3ccoc3cc2o1` [psoralen], the “inhibition of cytochrome P450” value in the series on cytochrome P450 was “do inhibit cvtochrome P450”. Moreover, in series [1], the toxicity / phototoxicity entry is given as “toxic, in particular, phototoxic”. In the series with human cytochrome P450 (in words), the “first-pass effect inhibition” value is on record as “ineffective”. As to `CCC(C)n1ncn(-c2ccc(N3CCN(c4ccc(OCC5COC(Cn6cncn6)(c6ccc(Cl)cc6Cl)O5)cc4)CC3)cc2)c1=O` (stereo not shown) [itraconazole], in the series with first-pass effect, the “inhibition of the first-pass effect” value is “identified as inhibitors of the first-pass effect”. On to `O=c1ccc2ccc3occc3c2o1` [angelicin], for which, in the series with human cytochrome P450 (in words), the “first-pass effect inhibition” value is “ineffective”.

As to `CC[C@H]1OC(=O)[C@H](C)[C@@H](O[C@H]2C[C@@](C)(OC)[C@@H](O)[C@H](C)O2)[C@H](C)[C@@H](O[C@@H]2O[C@H](C)C[C@H](N(C)C)[C@H]2O)[C@](C)(O)C[C@@H](C)C(=O)[C@H](C)[C@@H](O)[C@]1(C)O` [erythromycin], the “inhibition of the first-pass effect” value with first-pass effect is “identified as inhibitors of the first-pass effect”.
